This note sets out measurements from PubChem BioAssay AID248 (DTP/NCI, 2004).

Structures are written as SMILES. Where “and” joins values, the source holds several entries; their conditions need not be identical. Equal values may be shown once. Inconclusive results and toxic doses are left out.

The assay relates to L1210 leukemia ip in BDF1 mice, survival T/C. The assay can be described thus: NCI In Vivo Anticancer Drug Screen. Data for tumor model L1210 Leukemia (intraperitoneal) in B6D2F1 (BDF1) mice. The note with it: endpoint: mean survival time, higher = longer survival. The gist of the method:
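Each compound was tested against a transplantable tumor grown in mice. The endpoint was survival, with treated animals benchmarked against vehicle controls as a simple ratio.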

Where [1] appears, read: dose: 25.0 mg/kg/injection, schedule: Q01DX009 (ip), vehicle: saline.
Setting [2] is: dose: 25.0 mg/kg/injection, schedule: Q04DX002 (ip), vehicle: saline.
The mark [3] stands for this setting: dose: 50.0 mg/kg/injection, schedule: Q01DX009 (ip), vehicle: saline.
The mark [4] stands for this setting: dose: 50.0 mg/kg/injection, schedule: Q04DX002 (ip), vehicle: saline.
Setting [5] is: dose: 50.0 mg/kg/injection, schedule: Q04DX003 (ip), vehicle: saline.
Where [6] appears, read: dose: 100.0 mg/kg/injection, schedule: Q01DX001 (ip), vehicle: saline.
Where [7] appears, read: dose: 100.0 mg/kg/injection, schedule: Q01DX009 (ip), vehicle: saline.
Setting [8] is: dose: 100.0 mg/kg/injection, schedule: Q04DX002 (ip), vehicle: saline.
[9] abbreviates: dose: 200.0 mg/kg/injection, schedule: Q01DX001 (ip), vehicle: saline.
[10] abbreviates: dose: 200.0 mg/kg/injection, schedule: Q04DX002 (ip), vehicle: saline.
The mark [11] stands for this setting: dose: 400.0 mg/kg/injection, schedule: Q01DX001 (ip), vehicle: saline.
Setting [12] is: dose: 100.0 mg/kg/injection, schedule: Q04DX003 (ip), vehicle: saline with Tween-80.
[13] abbreviates: dose: 200.0 mg/kg/injection, schedule: Q04DX003 (ip), vehicle: saline with Tween-80.
[14] abbreviates: dose: 400.0 mg/kg/injection, schedule: Q04DX003 (ip), vehicle: saline with Tween-80.
The mark [15] stands for this setting: dose: 50.0 mg/kg/injection, schedule: Q01DX001 (ip), vehicle: saline.
[16] abbreviates: dose: 100.0 mg/kg/injection, schedule: Q01DX009 (ip), vehicle: saline with Tween-80.
The mark [17] stands for this setting: dose: 200.0 mg/kg/injection, schedule: Q01DX009 (ip), vehicle: saline with Tween-80.
The mark [18] stands for this setting: dose: 100.0 mg/kg/injection, schedule: Q04DX002 (ip), vehicle: Klucel (hydroxypropylcellulose) (HPC).
Setting [19] is: dose: 200.0 mg/kg/injection, schedule: Q04DX002 (ip), vehicle: Klucel (hydroxypropylcellulose) (HPC).
Setting [20] is: dose: 400.0 mg/kg/injection, schedule: Q04DX002 (ip), vehicle: Klucel (hydroxypropylcellulose) (HPC).
[21] abbreviates: dose: 100.0 mg/kg/injection, schedule: Q01DX009 (ip), vehicle: Klucel (hydroxypropylcellulose) (HPC).

Turning to `NOCCCCON`, the T/C was 98 % of control and 103 % of control under setting [1]; 93 % of control and 97 % of control under setting [2]; 95 % of control and 97 % of control under setting [3]; 96 % of control and 101 % of control under setting [4]; 98 % of control under setting [5]; 101 % of control under setting [6]. For the same molecule, the T/C under setting [7] was 100 % of control [middle of 4 runs]; the T/C under setting [8] was 93 % of control and 94 % of control; the T/C (dose: 100.0 mg/kg/injection, schedule: Q04DX003 (ip), vehicle: saline) is 95 % of control; the T/C under setting [9] was 102 % of control; the T/C (dose: 200.0 mg/kg/injection, schedule: Q01DX009 (ip), vehicle: saline) is 95 % of control and 102 % of control; the T/C under setting [10] was 96 % of control and 105 % of control. The T/C is 93 % of control (dose: 200.0 mg/kg/injection, schedule: Q04DX003 (ip), vehicle: saline); 104 % of control under setting [11]; 98 % of control and 110 % of control (dose: 400.0 mg/kg/injection, schedule: Q04DX002 (ip), vehicle: saline).
In the case of `O=C(NC(CBr)CCCBr)c1ccc([N+](=O)[O-])cc1` (centres undefined), the T/C is, setting by setting: under setting [12], 105 % of control; under setting [13], 94 % of control; under setting [14], 94 % of control.
As to `C=COC(=O)CCCCCCC` (tested in a mixture with another compound), the T/C reads like this: (dose: 4.0 mg/kg/injection, schedule: Q01DX001 (ip), vehicle: acetone) 89 % of control; (dose: 5.0 mg/kg/injection, schedule: Q01DX001 (ip), vehicle: acetone) 94 % of control; (dose: 5.0 mg/kg/injection, schedule: Q01DX001 (ip), vehicle: saline) 97 % of control; (dose: 6.0 mg/kg/injection, schedule: Q01DX001 (ip), vehicle: acetone) 106 % of control; (dose: 10.0 mg/kg/injection, schedule: Q01DX001 (ip), vehicle: acetone) 93 % of control; (dose: 10.0 mg/kg/injection, schedule: Q01DX001 (ip), vehicle: saline) 87 % of control. Besides, the T/C was 92 % of control (dose: 20.0 mg/kg/injection, schedule: Q01DX001 (ip), vehicle: acetone); 101 % of control (dose: 20.0 mg/kg/injection, schedule: Q01DX001 (ip), vehicle: saline); 95 % of control (dose: 40.0 mg/kg/injection, schedule: Q01DX001 (ip), vehicle: acetone); 97 % of control (dose: 40.0 mg/kg/injection, schedule: Q01DX001 (ip), vehicle: saline); 90 % of control (dose: 80.0 mg/kg/injection, schedule: Q01DX001 (ip), vehicle: acetone); 102 % of control (dose: 80.0 mg/kg/injection, schedule: Q01DX001 (ip), vehicle: saline). For the same molecule, the T/C runs as follows: under setting [6], 110 % of control and 104 % of control and 105 % of control; under setting [9], 94 % of control; under setting [11], 100 % of control and 101 % of control.
As for `CCCCSP(=O)(SCCCC)c1ccccc1`, the T/C reads like this: (dose: 100.0 mg/kg/injection, schedule: Q01DX001 (ip), vehicle: Klucel (hydroxypropylcellulose) (HPC)) 100 % of control; (dose: 200.0 mg/kg/injection, schedule: Q01DX001 (ip), vehicle: Klucel (hydroxypropylcellulose) (HPC)) 102 % of control; (dose: 400.0 mg/kg/injection, schedule: Q01DX001 (ip), vehicle: Klucel (hydroxypropylcellulose) (HPC)) 95 % of control.
For the molecule `CCCCCCCCN`, the T/C is 103 % of control (dose: 25.0 mg/kg/injection, schedule: Q01DX001 (ip), vehicle: saline); 108 % of control and 111 % of control under setting [1]; 101 % of control and 105 % of control under setting [2]; 101 % of control (dose: 25.0 mg/kg/injection, schedule: Q04DX003 (ip), vehicle: saline); 101 % of control under setting [15]; 104 % of control under setting [3]. Further, the T/C was 100 % of control and 105 % of control under setting [4]; 98 % of control under setting [5]; 94 % of control under setting [6]; 111 % of control under setting [7].
`Nc1c2ccccc2c[n+]2ccccc12`: the T/C runs as follows: under setting [3], 150 % of control; under setting [7], 163 % of control.
In the case of `CC(O)CSc1ccccc1` (centres undefined), the T/C runs as follows: under setting [16], 95 % of control; under setting [17], 88 % of control.
Consider `O=S1C=Cc2ccccc21` (centres undefined), for which the T/C is, setting by setting: under setting [18], 101 % of control; under setting [19], 116 % of control; under setting [20], 105 % of control.
Take `CCOC(=O)NOP(=O)(N1CC1(C)C)N1CC1(C)C` (centres undefined): the T/C is 207 % of control under setting [8] and 86 % of control under setting [10].
As to `Nc1ccc2c(=O)[nH][nH]c(=O)c2c1`, the T/C is 98 % of control under setting [16]; 98 % of control under setting [17]; 95 % of control (dose: 400.0 mg/kg/injection, schedule: Q01DX009 (ip), vehicle: saline with Tween-80).
As to `c1ccc(-c2c[nH]c(-c3ccccc3)c2)cc1`, the T/C runs as follows: (dose: 100.0 mg/kg/injection, schedule: Q04DX003 (ip), vehicle: Klucel (hydroxypropylcellulose) (HPC)) 124 % of control; (dose: 200.0 mg/kg/injection, schedule: Q01DX001 (ip), vehicle: steriod suspending solution) 103 % of control; (dose: 200.0 mg/kg/injection, schedule: Q04DX003 (ip), vehicle: Klucel (hydroxypropylcellulose) (HPC)) 100 % of control; (dose: 400.0 mg/kg/injection, schedule: Q01DX001 (ip), vehicle: steriod suspending solution) 103 % of control; (dose: 400.0 mg/kg/injection, schedule: Q04DX003 (ip), vehicle: Klucel (hydroxypropylcellulose) (HPC)) 94 % of control.
In the case of `O=S(=O)(c1ccccc1)C(CCCC(C(O)(c1ccccc1)c1ccccc1)S(=O)(=O)c1ccccc1)C(O)(c1ccccc1)c1ccccc1` (centres undefined), the T/C is 98 % of control under setting [12], 100 % of control under setting [13] and 105 % of control under setting [14].
The like results for `COP(=O)(C(OC(=O)C(C)(C)C)=C(C)C)N(C)C` (centres undefined) were, in that order, 97 % of control, 96 % of control and 96 % of control.
As to `[N-]=[N+]=Nc1ccc2cc3ccccc3nc2c1`, the T/C reads like this: (dose: 100.0 mg/kg/injection, schedule: Q04DX003 (ip), vehicle: acetone) 89 % of control; (dose: 200.0 mg/kg/injection, schedule: Q04DX003 (ip), vehicle: acetone) 95 % of control; (dose: 400.0 mg/kg/injection, schedule: Q04DX003 (ip), vehicle: acetone) 87 % of control.
`Cc1ccc(S(C)=O)cc1` (centres undefined): the T/C by setting is: under setting [6], 102 % of control; under setting [9], 95 % of control; under setting [11], 95 % of control.
In the case of `COc1ccc(OC(=O)Nc2ccc([N+](=O)[O-])cc2OC)cc1`, the T/C is 96 % of control under setting [21]; 95 % of control (dose: 200.0 mg/kg/injection, schedule: Q01DX009 (ip), vehicle: Klucel (hydroxypropylcellulose) (HPC)); 101 % of control (dose: 400.0 mg/kg/injection, schedule: Q01DX009 (ip), vehicle: Klucel (hydroxypropylcellulose) (HPC)).
With `CN(C(=O)CCC(=O)O)c1cc([N+](=O)[O-])ccc1OCc1ccccc1`, the T/C runs as follows: under setting [15], 108 % of control; under setting [6], 100 % of control; under setting [9], 105 % of control; under setting [11], 109 % of control.
Consider `O=C(NNc1ccccc1)Nc1ccccc1`, for which the T/C under setting [21] is 107 % of control.
Consider `OCC1OC(n2cc(Br)c3c2ncn2ccnc32)C(O)C1O` (centres undefined), for which the T/C by setting is: (dose: 50.0 mg/kg/injection, schedule: Q01DX005 (ip), vehicle: saline) 98 % of control; (dose: 100.0 mg/kg/injection, schedule: Q01DX005 (ip), vehicle: saline) 104 % of control; (dose: 200.0 mg/kg/injection, schedule: Q01DX005 (ip), vehicle: saline) 104 % of control.
On to `COc1cc(C=Nc2ccc3c(c2)nc(C)n3C)ccc1N(CCCl)CCCl`, for which the T/C is 165 % of control under setting [18], 120 % of control under setting [19] and 89 % of control under setting [20].
